Results reported in ChEMBL document CHEMBL1201862, “PubChem BioAssay data set” (2004).
Activity calls are given as the source filed them.

Legend:
[1] = cytotoxicity toward NIH3T3 fibroblasts, dose response, counter-screen, cell-based, ATP luminescence, mouse fibroblasts (AID 2010); assay type: functional;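 note: cells exposed to compound for about 90 hours before reading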
[2] = microbe, parasite or virus in culture; assay type: functional; conditions: Mycobacterium tuberculosis
[3] = inhibitors of intracellular T. cruzi replication, confirmation, NIH3T3 host cells, beta-gal luminescence (AID 2044); assay type: functional, cell-based;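 note: intracellular parasites grown in NIH/3T3 mouse fibroblasts as host cells; luminescent beta-galactosidase reporter signal from transgenic T. cruzi replicating inside host cells; inhibitors lower the luminescence signal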
[4] = molecular target: T1, Heat shock factor protein 1 (Mus musculus, UniProt P38532); assay: inhibition of MG132-induced HSE-luciferase signal, confirmation, cell-based, NIH3T3, luminescence, dose retest (AID 2382); assay type: functional;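 note: NIH3T3 fibroblasts with HSF1-driven luciferase reporter stressed by proteasome inhibitor MG132; luminescence from HSF1-driven luciferase expression after 8 hours of MG132 stress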
T1 sequence (P38532 whole entry): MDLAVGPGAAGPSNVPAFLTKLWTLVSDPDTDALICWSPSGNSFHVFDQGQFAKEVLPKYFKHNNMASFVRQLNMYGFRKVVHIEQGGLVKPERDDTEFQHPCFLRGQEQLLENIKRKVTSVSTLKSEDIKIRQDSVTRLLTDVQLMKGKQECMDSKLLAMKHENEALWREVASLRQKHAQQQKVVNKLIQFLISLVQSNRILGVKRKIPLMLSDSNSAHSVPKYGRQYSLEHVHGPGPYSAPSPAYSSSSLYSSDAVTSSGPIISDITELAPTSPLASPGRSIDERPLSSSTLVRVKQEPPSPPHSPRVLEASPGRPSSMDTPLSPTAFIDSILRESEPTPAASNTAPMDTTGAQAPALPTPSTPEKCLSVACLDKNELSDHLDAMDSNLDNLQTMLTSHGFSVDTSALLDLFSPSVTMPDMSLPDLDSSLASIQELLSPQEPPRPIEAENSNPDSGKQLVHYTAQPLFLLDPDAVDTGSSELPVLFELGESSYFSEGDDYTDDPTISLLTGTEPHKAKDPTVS

Genome polyprotein = Genome polyprotein (dengue virus type 2, UniProt P29990); assay: Dengue-2 NS5 methyltransferase inhibitors, primary screen, biochemical, confirmation dose response (AID 588689); assay type: functional
Chain of Genome polyprotein (P29990 2492-3391 limits assumed): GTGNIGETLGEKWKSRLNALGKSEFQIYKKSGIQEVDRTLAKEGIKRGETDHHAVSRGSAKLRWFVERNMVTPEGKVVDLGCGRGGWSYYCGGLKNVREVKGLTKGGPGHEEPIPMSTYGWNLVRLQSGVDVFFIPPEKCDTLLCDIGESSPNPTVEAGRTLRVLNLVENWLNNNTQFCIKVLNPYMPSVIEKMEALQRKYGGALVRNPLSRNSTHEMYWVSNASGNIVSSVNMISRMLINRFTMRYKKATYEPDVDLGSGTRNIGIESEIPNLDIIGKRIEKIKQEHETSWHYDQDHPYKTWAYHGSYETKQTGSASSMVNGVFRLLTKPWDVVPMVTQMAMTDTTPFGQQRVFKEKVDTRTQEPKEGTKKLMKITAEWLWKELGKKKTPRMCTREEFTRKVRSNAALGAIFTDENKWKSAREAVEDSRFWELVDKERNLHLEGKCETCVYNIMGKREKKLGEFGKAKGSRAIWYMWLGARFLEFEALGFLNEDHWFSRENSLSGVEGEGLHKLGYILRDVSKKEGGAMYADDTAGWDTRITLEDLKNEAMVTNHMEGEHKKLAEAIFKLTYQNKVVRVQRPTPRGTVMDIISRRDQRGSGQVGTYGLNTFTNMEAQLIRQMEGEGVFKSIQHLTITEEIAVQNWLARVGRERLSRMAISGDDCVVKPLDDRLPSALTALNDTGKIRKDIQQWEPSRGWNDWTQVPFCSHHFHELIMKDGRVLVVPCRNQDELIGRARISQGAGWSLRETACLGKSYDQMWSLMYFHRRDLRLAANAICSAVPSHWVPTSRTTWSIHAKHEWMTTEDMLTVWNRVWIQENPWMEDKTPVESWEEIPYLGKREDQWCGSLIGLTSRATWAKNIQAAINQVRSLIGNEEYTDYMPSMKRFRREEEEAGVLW

[5] = molecular target: T2, Rac GTPase-activating protein 1 (Homo sapiens, UniProt Q9H0H5); assay: MgcRacGAP GTPase-activating activity inhibitors, confirmation, biochemical, ADP Hunter fluorescence, primary and confirmatory (AID 624330); assay type: functional
T2 sequence (Q9H0H5 whole entry): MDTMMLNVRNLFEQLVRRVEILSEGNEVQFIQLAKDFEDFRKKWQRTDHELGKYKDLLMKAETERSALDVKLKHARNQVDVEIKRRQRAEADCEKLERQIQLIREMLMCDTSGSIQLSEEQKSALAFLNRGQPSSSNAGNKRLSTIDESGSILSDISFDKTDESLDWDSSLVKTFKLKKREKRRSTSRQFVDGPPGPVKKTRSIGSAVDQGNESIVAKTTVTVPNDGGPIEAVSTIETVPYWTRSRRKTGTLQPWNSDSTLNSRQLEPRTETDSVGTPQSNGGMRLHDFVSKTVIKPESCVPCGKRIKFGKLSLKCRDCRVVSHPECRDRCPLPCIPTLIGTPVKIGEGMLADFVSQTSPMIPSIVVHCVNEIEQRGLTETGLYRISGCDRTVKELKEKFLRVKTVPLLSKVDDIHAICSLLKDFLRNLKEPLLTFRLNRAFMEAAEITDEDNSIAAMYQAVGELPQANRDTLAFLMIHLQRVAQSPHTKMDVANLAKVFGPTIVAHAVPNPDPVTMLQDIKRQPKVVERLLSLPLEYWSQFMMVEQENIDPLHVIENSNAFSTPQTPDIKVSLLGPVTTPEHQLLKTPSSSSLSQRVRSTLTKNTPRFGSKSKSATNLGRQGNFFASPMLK

[6] = Luminescence Cell-Based Dose Response HTS to Identify Activators of Luciferase Translation or Activity in H4 […] Cells. [Related pubchem assays: 1829 (Project Summary), 1814 (Primary HTS)]; assay type: functional
[7] = molecular target: FAD-linked sulfhydryl oxidase ALR (Homo sapiens, UniProt P55789); assay: inhibitors of human ALR sulfhydryl oxidase, dose response, biochemical, H2O2 detection, luminescence, cherry-pick (AID 493248)
Chain of FAD-linked sulfhydryl oxidase ALR (P55789 whole entry): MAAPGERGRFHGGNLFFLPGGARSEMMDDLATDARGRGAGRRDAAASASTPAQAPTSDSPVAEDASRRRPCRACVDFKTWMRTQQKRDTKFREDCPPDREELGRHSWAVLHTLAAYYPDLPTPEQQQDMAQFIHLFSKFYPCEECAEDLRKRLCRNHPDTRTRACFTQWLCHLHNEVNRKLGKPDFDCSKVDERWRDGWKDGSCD

INS1 = assay: beta cell apoptosis inhibitors, cytokine rescue, dose response, luminescence, retest (AID 449756); assay type: functional, cell-based; conditions: Rattus norvegicus;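 note: cell death triggered by IL-1 beta plus TNF-alpha plus IFN-gamma mixture; protective hits raise ATP signal compared with cytokine alone wells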
Large T antigen = Large T antigen (Simian virus 40, UniProt P03070); assay type: functional, Betapolyomavirus macacae;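 note: Confirmatory-stage PubChem screen for compounds that inhibit SV40 T antigen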
Chain of Large T antigen (P03070 whole entry): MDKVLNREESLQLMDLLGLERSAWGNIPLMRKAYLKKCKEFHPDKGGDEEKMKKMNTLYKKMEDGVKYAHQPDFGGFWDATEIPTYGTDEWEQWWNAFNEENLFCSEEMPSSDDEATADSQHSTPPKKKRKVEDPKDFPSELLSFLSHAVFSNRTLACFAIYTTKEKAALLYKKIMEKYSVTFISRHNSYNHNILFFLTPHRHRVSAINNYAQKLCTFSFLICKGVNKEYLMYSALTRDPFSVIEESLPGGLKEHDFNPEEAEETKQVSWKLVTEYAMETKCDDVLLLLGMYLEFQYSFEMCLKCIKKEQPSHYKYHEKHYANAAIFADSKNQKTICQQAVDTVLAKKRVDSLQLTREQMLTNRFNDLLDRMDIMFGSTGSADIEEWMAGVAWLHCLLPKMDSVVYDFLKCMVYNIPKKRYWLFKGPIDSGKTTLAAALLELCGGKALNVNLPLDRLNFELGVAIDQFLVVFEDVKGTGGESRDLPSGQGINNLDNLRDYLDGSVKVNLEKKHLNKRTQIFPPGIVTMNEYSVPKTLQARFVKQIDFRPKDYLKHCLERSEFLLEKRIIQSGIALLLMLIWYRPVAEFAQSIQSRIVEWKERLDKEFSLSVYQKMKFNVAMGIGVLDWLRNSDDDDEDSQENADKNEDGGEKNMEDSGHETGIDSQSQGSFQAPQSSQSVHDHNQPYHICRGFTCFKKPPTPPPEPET

[8] = molecular target: T3, Calpain-2 catalytic subunit (Sus scrofa, UniProt P43367); assay: pig calpain II inhibitor potency, dose response, biochemical, fluorogenic peptide substrate (AID 1420); assay type: functional
T3 sequence (P43367 whole entry): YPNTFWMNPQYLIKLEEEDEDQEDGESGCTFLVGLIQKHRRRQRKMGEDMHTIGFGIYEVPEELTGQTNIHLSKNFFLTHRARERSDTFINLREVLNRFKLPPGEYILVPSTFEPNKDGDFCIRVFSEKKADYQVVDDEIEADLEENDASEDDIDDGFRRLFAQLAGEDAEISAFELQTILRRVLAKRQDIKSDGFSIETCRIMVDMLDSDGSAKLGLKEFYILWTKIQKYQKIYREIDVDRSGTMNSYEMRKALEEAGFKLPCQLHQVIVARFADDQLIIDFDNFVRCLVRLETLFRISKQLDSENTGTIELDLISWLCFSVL

[9] = cytotoxicity toward DRD oncogenic fibroblasts, dose response, cell-based, non-viral oncogenic, luminescence (AID 1934); assay type: functional; conditions: Homo sapiens
BJ [10] = assay: cells; assay type: functional, cell-based; conditions: Homo sapiens
BJ [11] = assay: cytotoxicity toward BJ-TERT fibroblasts, dose response, cell-based, RAS-independent, luminescence (AID 1933); assay type: functional; conditions: Homo sapiens
BJ [12] = assay: cytotoxicity toward BJ-TERT-LT-ST fibroblasts, dose response, cell-based, RAS-independent, luminescence (AID 1935); assay type: functional; conditions: Homo sapiens;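 note: BJ fibroblasts immortalized with TERT plus LT and ST oncogenes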
H4 = assay: Luminescence Cell-Based Dose Response HTS to Identify Activators of 5'UTR Stem-Loop Driven Prion Protein mRNA Translation in H4 Neuroglioblastoma Cells. [Related pubchem assays: 1829 (Project Summary), 1814 (Primary HTS)]; assay type: functional; conditions: Homo sapiens
[13] = inhibitors of firefly luciferase expression or activity, dose response, H4 neuroglioma cells, luminescence (AID 1990); assay type: functional, cell-based
[14] = inhibitors of SNCA 5'UTR-driven reporter translation, confirmation, H4 neuroglioma cells, luminescence (AID 1988); assay type: functional, cell-based
[15] = C. albicans growth with fluconazole, confirmation, fluorescence, retest (AID 2467); assay type: functional, cell-based
[16] = NIH-3T3 fibroblast cytotoxicity, dose response, cytotoxicity control, cell-based, fluorescence, Alamar Blue, secondary assay (AID 2327); assay type: functional;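 note: NIH-3T3 mouse fibroblasts cultured with fluconazole at 8 µg/mL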
[17] = Luminescence Cell-Based Dose Response HTS to Identify Inhibitors of 5'UTR Stem-Loop Driven Prion Protein mRNA Translation in H4 Neuroglioblastoma Cells. [Related pubchem assays: 1827 (Project Summary), 1813 (Primary HTS)]; assay type: functional

CCOc1ccc(-c2cnc(NCc3cccc4ccccc34)n2CCOC)cc1
EC50 [1]: > 60 µM (not active) | CC50 [2]: 12.2 µM (active) | EC50 [3]: 0.979 µM (active) | EC50 [4]: > 195 µM (not active)

Cc1ccc(C(C2=C(O)CC(C)(C)CC2=O)C2C(=O)CC(C)(C)CC2=O)s1 (stereo not drawn)
IC50 (Genome polyprotein): 29.4 µM (active) | IC50 [5]: 62.9 µM (active)

Nc1c(C(=O)O)sc2nc(-c3ccccc3)cc(-c3ccc(Cl)cc3)c12
IC50 (Genome polyprotein): 70.8 µM (active) | EC50 [4]: > 195 µM (not active)

Cc1cc(N)n2ncc(-c3ccccc3)c2n1
EC50 [6]: 0.137 µM (active) | AC50 [7]: 18.9 µM (active)

CC(C)(C)c1cc(-c2nnc(S)n2-c2ccccc2F)[nH]n1
AC50 [7]: 2.1 µM (active)

CC(C)(C)C(=O)Nc1ccc(C(=O)N/N=C/c2ccccc2OC(=O)c2ccc(Cl)cc2)cc1
AC50 (INS1): 2.83 µM (active)

CC(=O)c1ccc(NC(=O)N2CCN(c3ccc(C)cc3)C(C)C2)cc1 (stereo not drawn)
AC50 [7]: 3.56 µM (active)

COc1cc(/C=N/NC(=O)c2ccccc2O)ccc1OC(=O)CC1SC(=O)NC1=O (stereo not drawn)
IC50 (Large T antigen): 35.1 µM (active)

Cc1cc([N+](=O)[O-])nn1CCCC(=O)Nc1cc(Oc2ccccc2)cc([N+](=O)[O-])c1
IC50 [8]: 5.32 µM (not active)

COc1ccc(-c2csc3ncnc(N4CCN(c5ccccc5OC)CC4)c23)cc1
CC50 [2]: > 40 µM (active)

CC1(C)Nc2ccccc2N(CC(=O)N2CCCCC2)C1=O
AC50 [7]: 1.96 µM (active)

CCN(CCCNC(=O)CCn1c(=O)[nH]c2ccsc2c1=O)c1ccccc1
IC50 [8]: < 0.4 µM (not active) | EC50 [4]: > 195 µM (not active)

Cc1cc(NC(=O)c2ccc3c(c2)C(=O)N(CCC(C)C)C3=O)no1
IC50 [8]: 17.2 µM (not active)

COc1ccc2c(c1OC)C(=O)OC2c1c(O)n(Cc2ccc(F)cc2)c(=O)[nH]c1=O (stereo not drawn)
IC50 (Genome polyprotein): 69.7 µM (active)

Oc1ccccc1/C=N/NC(=S)NC1CC2CC1C1C=CCC21 (stereo not drawn)
CC50 [2]: 13.9 µM (active)

CCCN(C#N)c1nc(NCC)nc(NC(C)C)n1
IC50 [8]: > 50 µM (not active)

COc1ccccc1N=C(S)N(Cc1ccco1)Cc1cc2ccc(C)c(C)c2nc1O
EC50 [9]: 0.685 µM (active) | EC50 (BJ [10]): 20.2 µM (inconclusive) | EC50 (BJ [11]): 0.717 µM (inconclusive) | EC50 (BJ [12]): 0.525 µM (active)

Cc1cc(C)cc(-n2ncc3c2CCCC3NC(=O)c2cc(C)n(C)n2)c1 (stereo not drawn)
AC50 [7]: 4.51 µM (active)

O=C(Cc1cccs1)Nc1ccc(-c2nc3ccccc3[nH]2)cc1
EC50 [6]: 1.51 µM (active) | EC50 (H4): 0.236 µM (active)

CC(C)[C@H]1C(=O)O[C@H](C(C)C)C(=O)N(C)[C@@H](C(C)C)C(=O)O[C@H](C(C)C)C(=O)N(C)[C@@H](C(C)C)C(=O)O[C@H](C(C)C)C(=O)N1C [ENNIATIN B]
EC50 [1]: 3.66 µM (active) | EC50 [13]: 5.62 µM (active) | EC50 [14]: > 120 µM (not active) | EC50 [15]: 0.374 µM (active) | EC50 [16]: 3.22 µM (inconclusive) | EC50 [3]: 0.853 µM (active) | AC50 (INS1): 2.99 µM (active) | EC50 [17]: > 120 µM (not active)
